Assay results as given in the kinase profiling compilation of Christmann-Franck et al. (2016).

Legend:
Test in all cases: KINOMEscan competition binding
Conditions in all cases: compound 0.1 µM
PIP5K1C (human) = PIP5K1C (human) (UniProt O60331)
ITK (human) = ITK (human) (UniProt Q08881)
EPHB4 (human) = EPHB4 (human) (UniProt P54760)
ULK1 (human) = ULK1 (human) (UniProt O75385)
MAP4K1 (human) = MAP4K1 (human) (UniProt Q92918)
CAMK1D (human) = CAMK1D (human) (UniProt Q8IU85)
STK4 (human) = STK4 (human) (UniProt Q13043)
INSR (human) = INSR (human) (UniProt P06213)
SBK1 (human) = SBK1 (human) (UniProt Q52WX2)
CDK15 (human) = CDK15 (human) (UniProt Q96Q40)
PIK3CB (human) = PIK3CB (human) (UniProt P42338)
CDK11B (human) = CDK11B (human) (UniProt P21127)
STK35 (human) = STK35 (human) (UniProt Q8TDR2)
PRKG2 (human) = PRKG2 (human) (UniProt Q13237)
Chain of PRKG2 (human) (Q13237 whole entry, looked up): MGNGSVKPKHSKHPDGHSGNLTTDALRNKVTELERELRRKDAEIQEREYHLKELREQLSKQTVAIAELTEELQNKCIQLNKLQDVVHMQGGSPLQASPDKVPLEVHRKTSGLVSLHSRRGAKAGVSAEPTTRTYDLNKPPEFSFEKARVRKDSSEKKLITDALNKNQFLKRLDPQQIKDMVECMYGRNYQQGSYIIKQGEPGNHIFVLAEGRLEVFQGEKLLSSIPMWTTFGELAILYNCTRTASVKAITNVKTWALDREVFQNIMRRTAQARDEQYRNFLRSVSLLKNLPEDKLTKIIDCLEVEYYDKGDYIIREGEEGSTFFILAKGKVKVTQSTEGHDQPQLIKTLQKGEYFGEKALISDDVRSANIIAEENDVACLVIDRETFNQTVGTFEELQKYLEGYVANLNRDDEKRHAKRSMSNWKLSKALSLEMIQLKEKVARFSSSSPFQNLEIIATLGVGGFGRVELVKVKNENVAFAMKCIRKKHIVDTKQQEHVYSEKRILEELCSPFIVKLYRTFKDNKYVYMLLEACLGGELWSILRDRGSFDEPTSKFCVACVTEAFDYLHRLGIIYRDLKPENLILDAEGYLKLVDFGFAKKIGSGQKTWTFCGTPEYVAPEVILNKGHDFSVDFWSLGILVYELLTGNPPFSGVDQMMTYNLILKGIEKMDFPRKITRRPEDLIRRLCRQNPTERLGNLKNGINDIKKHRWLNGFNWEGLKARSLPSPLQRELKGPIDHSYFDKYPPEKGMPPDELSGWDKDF

EPHB6 (human) = EPHB6 (human) (UniProt O15197)
NEK4 (human) = NEK4 (human) (UniProt P51957)
DCLK2 (human) = DCLK2 (human) (UniProt Q8N568)
PAK7 (human) = PAK7 (human) (UniProt Q9P286)
CSNK1G3 (human) = CSNK1G3 (human) (UniProt Q9Y6M4)
ZAP70 (human) = ZAP70 (human) (UniProt P43403)
[1] = test system: KIT (human), P10721 [V559D/T670I]
ULK3 (human) = ULK3 (human) (UniProt Q6PHR2)
MYO3A (human) = MYO3A (human) (UniProt Q8NEV4)
Chain of MYO3A (human) (Q8NEV4 whole entry, looked up): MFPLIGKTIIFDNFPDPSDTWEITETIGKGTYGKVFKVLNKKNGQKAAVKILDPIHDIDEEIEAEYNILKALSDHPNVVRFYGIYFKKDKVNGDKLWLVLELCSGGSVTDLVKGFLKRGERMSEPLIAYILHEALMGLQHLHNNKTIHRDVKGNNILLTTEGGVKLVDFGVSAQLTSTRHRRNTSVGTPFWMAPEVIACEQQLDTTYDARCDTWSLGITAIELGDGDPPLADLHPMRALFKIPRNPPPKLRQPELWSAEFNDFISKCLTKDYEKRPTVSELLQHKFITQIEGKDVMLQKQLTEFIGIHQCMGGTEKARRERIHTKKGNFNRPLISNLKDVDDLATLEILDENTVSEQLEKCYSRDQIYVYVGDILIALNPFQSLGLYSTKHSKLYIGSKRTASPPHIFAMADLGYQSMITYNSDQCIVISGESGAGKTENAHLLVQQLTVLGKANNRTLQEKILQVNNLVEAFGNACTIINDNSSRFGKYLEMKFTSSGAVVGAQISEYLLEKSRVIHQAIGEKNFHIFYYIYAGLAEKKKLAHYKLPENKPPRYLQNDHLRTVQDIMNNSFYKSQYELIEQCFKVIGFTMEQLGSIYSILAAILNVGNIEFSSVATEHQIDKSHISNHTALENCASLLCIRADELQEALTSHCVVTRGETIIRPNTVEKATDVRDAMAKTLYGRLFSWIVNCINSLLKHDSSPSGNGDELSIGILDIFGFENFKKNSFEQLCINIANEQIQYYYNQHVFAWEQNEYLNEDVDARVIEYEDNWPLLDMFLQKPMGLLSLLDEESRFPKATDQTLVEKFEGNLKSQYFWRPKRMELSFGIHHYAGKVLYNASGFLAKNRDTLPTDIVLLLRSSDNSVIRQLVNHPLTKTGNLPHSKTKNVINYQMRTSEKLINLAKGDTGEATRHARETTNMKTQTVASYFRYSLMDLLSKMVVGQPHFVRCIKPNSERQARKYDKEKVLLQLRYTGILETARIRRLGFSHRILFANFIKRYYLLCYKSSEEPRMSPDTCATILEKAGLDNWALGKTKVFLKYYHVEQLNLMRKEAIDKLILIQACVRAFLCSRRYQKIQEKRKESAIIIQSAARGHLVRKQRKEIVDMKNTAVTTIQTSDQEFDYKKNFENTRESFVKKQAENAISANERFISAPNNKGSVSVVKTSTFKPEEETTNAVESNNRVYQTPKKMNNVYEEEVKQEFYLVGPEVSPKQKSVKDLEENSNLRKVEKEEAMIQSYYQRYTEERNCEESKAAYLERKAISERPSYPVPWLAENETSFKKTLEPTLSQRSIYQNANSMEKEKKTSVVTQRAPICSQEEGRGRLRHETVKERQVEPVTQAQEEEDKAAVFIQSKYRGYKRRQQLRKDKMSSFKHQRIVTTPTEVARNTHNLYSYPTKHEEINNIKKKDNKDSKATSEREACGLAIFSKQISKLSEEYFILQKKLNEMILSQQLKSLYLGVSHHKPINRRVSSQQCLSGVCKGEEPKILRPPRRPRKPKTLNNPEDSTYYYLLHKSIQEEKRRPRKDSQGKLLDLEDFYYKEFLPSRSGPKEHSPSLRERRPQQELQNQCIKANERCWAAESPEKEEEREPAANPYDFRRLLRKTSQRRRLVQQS

CDKL3 (human) = CDKL3 (human) (UniProt Q8IVW4)
TAOK2 (human) = TAOK2 (human) (UniProt Q9UL54)
SNRK (human) = SNRK (human) (UniProt Q9NRH2)
PKN1 (human) = PKN1 (human) (UniProt Q16512)
[2] = test system: RET (human), P07949 [V804M]
Chain of RET (human), P07949 [V804M] (P07949 whole entry V804M, looked up): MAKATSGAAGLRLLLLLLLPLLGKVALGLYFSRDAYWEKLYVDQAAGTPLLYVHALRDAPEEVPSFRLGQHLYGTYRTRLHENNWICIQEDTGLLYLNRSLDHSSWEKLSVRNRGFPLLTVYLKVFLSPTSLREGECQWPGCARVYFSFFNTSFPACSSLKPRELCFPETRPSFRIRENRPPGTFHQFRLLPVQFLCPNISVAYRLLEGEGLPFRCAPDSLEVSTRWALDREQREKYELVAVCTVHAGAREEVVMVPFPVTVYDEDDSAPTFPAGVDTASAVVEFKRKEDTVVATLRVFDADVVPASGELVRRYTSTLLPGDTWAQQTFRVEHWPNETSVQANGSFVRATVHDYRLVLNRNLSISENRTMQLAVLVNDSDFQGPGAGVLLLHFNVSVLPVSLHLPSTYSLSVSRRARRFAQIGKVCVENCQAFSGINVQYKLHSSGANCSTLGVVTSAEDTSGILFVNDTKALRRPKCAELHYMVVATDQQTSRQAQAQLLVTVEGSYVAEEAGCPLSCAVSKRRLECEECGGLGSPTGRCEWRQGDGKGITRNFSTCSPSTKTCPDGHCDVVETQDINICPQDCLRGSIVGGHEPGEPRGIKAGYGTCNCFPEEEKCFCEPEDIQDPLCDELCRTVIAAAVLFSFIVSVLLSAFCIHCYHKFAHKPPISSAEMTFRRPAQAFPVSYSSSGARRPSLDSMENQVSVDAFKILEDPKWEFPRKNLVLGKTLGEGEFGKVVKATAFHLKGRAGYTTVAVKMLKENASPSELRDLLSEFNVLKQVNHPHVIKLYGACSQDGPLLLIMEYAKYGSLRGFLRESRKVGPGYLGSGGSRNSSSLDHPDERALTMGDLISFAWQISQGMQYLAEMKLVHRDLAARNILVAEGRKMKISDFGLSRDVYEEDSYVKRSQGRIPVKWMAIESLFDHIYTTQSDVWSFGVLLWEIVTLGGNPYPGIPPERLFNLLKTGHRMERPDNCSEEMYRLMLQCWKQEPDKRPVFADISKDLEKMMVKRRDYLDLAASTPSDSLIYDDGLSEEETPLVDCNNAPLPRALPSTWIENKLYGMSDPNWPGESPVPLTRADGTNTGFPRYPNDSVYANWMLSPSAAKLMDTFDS

FRK (human) = FRK (human) (UniProt P42685)
CDK9 (human) = CDK9 (human) (UniProt P50750)
MYO3B (human) = MYO3B (human) (UniProt Q8WXR4)
PRKCE (human) = PRKCE (human) (UniProt Q02156)
CAMK2B (human) = CAMK2B (human) (UniProt Q13554)
STK36 (human) = STK36 (human) (UniProt Q9NRP7)
Chain of STK36 (human) (Q9NRP7 whole entry, looked up): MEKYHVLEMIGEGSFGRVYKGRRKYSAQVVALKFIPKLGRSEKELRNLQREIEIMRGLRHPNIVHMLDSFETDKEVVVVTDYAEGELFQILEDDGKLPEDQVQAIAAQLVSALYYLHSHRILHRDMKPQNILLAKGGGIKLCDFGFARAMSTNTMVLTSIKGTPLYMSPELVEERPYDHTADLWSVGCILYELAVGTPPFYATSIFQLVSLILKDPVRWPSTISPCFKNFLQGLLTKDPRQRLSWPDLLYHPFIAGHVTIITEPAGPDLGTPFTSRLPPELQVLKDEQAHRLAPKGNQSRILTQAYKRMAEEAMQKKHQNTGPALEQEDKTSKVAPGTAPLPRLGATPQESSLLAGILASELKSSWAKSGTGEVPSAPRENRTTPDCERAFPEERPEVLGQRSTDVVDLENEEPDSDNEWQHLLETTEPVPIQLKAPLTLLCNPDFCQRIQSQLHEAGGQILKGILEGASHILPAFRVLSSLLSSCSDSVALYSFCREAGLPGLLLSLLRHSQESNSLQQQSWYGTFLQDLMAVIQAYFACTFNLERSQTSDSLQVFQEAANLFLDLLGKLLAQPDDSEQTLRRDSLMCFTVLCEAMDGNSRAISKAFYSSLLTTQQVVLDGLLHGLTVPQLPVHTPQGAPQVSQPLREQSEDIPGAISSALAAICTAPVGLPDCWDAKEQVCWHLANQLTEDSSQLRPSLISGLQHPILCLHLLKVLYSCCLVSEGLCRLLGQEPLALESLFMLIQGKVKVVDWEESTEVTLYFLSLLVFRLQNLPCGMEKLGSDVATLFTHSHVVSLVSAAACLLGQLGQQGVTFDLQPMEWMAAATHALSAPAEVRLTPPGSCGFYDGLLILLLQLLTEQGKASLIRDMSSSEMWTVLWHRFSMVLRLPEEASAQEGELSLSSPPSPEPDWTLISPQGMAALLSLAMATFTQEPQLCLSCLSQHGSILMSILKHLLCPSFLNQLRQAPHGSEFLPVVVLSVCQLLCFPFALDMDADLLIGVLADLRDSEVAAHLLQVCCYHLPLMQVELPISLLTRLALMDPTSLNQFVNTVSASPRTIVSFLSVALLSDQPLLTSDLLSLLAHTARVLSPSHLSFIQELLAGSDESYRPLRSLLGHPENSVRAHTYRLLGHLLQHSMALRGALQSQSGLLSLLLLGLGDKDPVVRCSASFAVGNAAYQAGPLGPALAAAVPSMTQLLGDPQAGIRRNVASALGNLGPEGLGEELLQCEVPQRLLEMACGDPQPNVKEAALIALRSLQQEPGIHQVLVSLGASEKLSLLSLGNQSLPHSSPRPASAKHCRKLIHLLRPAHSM

FER (human) = FER (human) (UniProt P16591)
MARK2 (human) = MARK2 (human) (UniProt Q7KZI7)
MELK (human) = MELK (human) (UniProt Q14680)
CDK8 (human) = CDK8 (human) (UniProt P49336)
[3] = test system: EGFR (human), P00533 [747-751 del / S ins]
DAPK1 (human) = DAPK1 (human) (UniProt P53355)
CSK (human) = CSK (human) (UniProt P41240)

Compound: CCc1ccc(C(=O)Nc2cc(CN3CCN(C)CC3)cc(C(F)(F)F)c2)cc1C#Cc1cnc2ccnn2c1
- kinase still bound, per cent of control (PIP5K1C (human)): 96%
- kinase still bound, per cent of control (ITK (human)): 100%
- kinase still bound, per cent of control (EPHB4 (human)): 100%
- kinase still bound, per cent of control (ULK1 (human)): 100%
- kinase still bound, per cent of control (MAP4K1 (human)): 100%
- kinase still bound, per cent of control (CAMK1D (human)): 84%
- kinase still bound, per cent of control (STK4 (human)): 63%
- kinase still bound, per cent of control (INSR (human)): 86%
- kinase still bound, per cent of control (SBK1 (human)): 73%
- kinase still bound, per cent of control (CDK15 (human)): 100%
- kinase still bound, per cent of control (PIK3CB (human)): 100%
- kinase still bound, per cent of control (CDK11B (human)): 100%
- kinase still bound, per cent of control (STK35 (human)): 100%
- kinase still bound, per cent of control (PRKG2 (human)): 100%
- kinase still bound, per cent of control (EPHB6 (human)): 100%
- kinase still bound, per cent of control (NEK4 (human)): 100%
- kinase still bound, per cent of control (DCLK2 (human)): 100%
- kinase still bound, per cent of control (PAK7 (human)): 85%
- kinase still bound, per cent of control (CSNK1G3 (human)): 78%
- kinase still bound, per cent of control (ZAP70 (human)): 100%
- kinase still bound, per cent of control [1]: 96%
- kinase still bound, per cent of control (ULK3 (human)): 100%
- kinase still bound, per cent of control (MYO3A (human)): 100%
- kinase still bound, per cent of control (CDKL3 (human)): 56%
- kinase still bound, per cent of control (TAOK2 (human)): 100%
- kinase still bound, per cent of control (SNRK (human)): 75%
- kinase still bound, per cent of control (PKN1 (human)): 100%
- kinase still bound, per cent of control [2]: 80%
- kinase still bound, per cent of control (FRK (human)): 47%
- kinase still bound, per cent of control (CDK9 (human)): 98%
- kinase still bound, per cent of control (MYO3B (human)): 100%
- kinase still bound, per cent of control (PRKCE (human)): 94%
- kinase still bound, per cent of control (CAMK2B (human)): 72%
- kinase still bound, per cent of control (STK36 (human)): 84%
- kinase still bound, per cent of control (FER (human)): 70%
- kinase still bound, per cent of control (MARK2 (human)): 100%
- kinase still bound, per cent of control (MELK (human)): 95%
- kinase still bound, per cent of control (CDK8 (human)): 76%
- kinase still bound, per cent of control [3]: 100%
- kinase still bound, per cent of control (DAPK1 (human)): 100%
- kinase still bound, per cent of control (CSK (human)): 92%
